Assays:
[1] = biological target: Mitogen-activated protein kinase kinase kinase 12 (DLK/MAP3K12) (Homo sapiens) (UniProt Q12852); assay: Inhibition of human DLK by discoverX kinome scan assay
[2] = biological target: Serine/threonine-protein kinase OSR1 (OXSR1) (Homo sapiens) (UniProt O95747); assay: Inhibition of human OSR1 by discoverX kinome scan assay
[3] = biological target: Serine/threonine-protein kinase PRP4 homolog (PRPF4B) (Homo sapiens) (UniProt Q13523); assay: Inhibition of human PRP4 by discoverX kinome scan assay
[4] = biological target: Mitogen-activated protein kinase kinase kinase 7 (TAK1/MAP3K7) (Homo sapiens) (UniProt O43318); assay: Inhibition of human TAK1 by discoverX kinome scan assay

Measured: IC50

Mitogen-activated protein kinase kinase kinase 7 (TAK1/MAP3K7) (Homo sapiens), sequence (O43318 whole entry, looked up): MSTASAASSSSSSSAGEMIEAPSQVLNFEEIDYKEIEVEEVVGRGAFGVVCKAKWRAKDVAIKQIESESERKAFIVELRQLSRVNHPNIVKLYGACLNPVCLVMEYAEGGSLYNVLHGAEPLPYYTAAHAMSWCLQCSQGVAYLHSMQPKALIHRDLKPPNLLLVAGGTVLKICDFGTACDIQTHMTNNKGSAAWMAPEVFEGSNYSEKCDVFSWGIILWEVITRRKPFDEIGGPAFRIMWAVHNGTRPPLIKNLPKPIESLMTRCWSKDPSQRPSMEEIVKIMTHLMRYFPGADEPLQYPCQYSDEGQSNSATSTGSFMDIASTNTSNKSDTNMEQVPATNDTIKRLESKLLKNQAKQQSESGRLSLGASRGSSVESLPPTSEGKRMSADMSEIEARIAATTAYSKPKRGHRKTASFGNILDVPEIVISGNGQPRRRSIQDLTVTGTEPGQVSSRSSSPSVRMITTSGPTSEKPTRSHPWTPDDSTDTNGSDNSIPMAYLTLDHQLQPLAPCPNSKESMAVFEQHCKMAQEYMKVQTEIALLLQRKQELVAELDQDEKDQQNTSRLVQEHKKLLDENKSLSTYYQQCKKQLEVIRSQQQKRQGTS
Serine/threonine-protein kinase PRP4 homolog (PRPF4B) (Homo sapiens), sequence (Q13523 whole entry, looked up): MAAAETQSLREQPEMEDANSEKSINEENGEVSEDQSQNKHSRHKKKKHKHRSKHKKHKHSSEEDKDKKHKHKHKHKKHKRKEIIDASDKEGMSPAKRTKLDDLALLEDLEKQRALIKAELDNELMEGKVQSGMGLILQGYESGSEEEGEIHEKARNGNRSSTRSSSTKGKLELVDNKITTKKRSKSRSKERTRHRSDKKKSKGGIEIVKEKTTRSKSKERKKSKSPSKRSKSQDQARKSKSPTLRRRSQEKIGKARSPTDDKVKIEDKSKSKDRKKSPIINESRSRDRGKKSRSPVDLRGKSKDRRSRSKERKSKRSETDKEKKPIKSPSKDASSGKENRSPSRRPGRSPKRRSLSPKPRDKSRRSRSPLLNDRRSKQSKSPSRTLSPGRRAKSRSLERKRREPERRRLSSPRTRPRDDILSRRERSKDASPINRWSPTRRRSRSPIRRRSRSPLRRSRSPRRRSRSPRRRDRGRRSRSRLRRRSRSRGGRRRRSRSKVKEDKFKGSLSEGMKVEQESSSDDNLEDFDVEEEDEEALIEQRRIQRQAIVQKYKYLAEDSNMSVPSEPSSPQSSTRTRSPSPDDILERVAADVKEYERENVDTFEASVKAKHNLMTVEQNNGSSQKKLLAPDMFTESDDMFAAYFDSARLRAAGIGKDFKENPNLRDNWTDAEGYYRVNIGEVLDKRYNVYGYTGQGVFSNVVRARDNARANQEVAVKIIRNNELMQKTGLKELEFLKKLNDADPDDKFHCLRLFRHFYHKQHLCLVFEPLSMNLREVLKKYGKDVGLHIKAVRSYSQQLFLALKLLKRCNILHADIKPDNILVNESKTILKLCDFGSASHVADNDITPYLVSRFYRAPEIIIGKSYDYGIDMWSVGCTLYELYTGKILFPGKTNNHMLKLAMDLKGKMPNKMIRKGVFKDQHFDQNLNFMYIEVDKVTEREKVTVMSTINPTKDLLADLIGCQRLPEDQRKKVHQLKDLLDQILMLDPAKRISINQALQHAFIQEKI
Serine/threonine-protein kinase OSR1 (OXSR1) (Homo sapiens), sequence (O95747 whole entry, looked up): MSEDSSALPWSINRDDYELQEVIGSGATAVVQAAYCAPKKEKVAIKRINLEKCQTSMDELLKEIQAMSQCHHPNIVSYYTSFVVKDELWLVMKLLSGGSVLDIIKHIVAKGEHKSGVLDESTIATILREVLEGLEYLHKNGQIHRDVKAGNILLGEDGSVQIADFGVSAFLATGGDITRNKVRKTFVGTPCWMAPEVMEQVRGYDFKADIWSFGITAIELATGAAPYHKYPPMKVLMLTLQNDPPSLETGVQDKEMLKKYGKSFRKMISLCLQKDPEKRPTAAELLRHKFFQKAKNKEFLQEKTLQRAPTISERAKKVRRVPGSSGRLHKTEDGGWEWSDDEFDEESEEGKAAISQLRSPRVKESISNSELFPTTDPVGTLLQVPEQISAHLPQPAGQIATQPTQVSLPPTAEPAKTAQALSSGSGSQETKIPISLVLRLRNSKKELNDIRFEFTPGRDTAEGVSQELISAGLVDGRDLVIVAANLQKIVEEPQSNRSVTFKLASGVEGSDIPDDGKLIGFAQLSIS
Mitogen-activated protein kinase kinase kinase 12 (DLK/MAP3K12) (Homo sapiens), sequence (Q12852 whole entry, looked up): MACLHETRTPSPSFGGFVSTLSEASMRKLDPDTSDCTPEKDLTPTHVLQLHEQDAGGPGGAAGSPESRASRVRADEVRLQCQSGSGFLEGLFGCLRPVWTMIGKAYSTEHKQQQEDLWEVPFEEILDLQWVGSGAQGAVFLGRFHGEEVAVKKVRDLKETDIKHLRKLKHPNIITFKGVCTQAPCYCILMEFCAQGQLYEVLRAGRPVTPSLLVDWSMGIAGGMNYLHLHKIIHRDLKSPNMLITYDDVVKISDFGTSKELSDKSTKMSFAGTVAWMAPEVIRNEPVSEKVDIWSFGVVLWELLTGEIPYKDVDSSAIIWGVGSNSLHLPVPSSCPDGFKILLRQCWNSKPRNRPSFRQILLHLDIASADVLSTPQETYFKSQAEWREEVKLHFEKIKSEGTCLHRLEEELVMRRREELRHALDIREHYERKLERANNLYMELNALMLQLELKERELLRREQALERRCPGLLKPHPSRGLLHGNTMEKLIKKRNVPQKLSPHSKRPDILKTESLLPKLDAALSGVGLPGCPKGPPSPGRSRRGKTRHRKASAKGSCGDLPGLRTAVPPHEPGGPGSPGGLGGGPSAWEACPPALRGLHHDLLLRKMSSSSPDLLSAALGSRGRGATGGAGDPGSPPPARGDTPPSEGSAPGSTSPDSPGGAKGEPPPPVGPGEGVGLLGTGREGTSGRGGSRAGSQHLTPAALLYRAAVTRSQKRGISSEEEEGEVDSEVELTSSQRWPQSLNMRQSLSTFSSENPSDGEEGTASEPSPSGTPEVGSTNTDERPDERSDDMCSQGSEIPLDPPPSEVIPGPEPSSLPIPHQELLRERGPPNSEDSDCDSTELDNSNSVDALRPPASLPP

Cc1cn(CCN2CCN(c3ccccc3-c3cc(C#N)cc(C(=O)NCCCN4CCCC4)c3)CC2)c2ccccc12
> 20 µM: all assays above
